# In patent publication US5639474A (Hanmi Pharm. Ind., Ltd., priority 1993, dated 1997):
# Settings: for Change in contents (per capsule): Initial content: cosurfactant content in soft capsule
# Excerpt: The membrane permeation property of dimethylisosorbide over the storage period at the room temperature was examined for the soft capsules prepared using dimethylisosorbide (ARLASOLVE® DMI) as a cosurfactant according to the present invention and then compared with the membrane permeation properties of ethanol, propylene glycol, Transcutol (diethylene glycol monoethyl ether) and Glycofurol (tetrahydrofurfuryl alcohol polyethylene glycol ether). The content of the cosurfactant in each soft capsule preparation was analyzed by gas chromatography. The components and their constitutional ratios in the compositions used in this experiment are given in the following Table 1 and the experiment results are given in the following Table 2.
# Note: Conditions of gas chromatography for each cosurfactant
# Column: Ultra 2 (Cross-linked 2% phenylmethyl silicone gun phase, 25 m×0.32 mm, thickness 0.52 μm)
# Column temperature: 230° C. (Isothermal)
# Detector: FID (Temperature: 270° C.)
# Injection temperature: 275° C.
# Carrier gas: He (Partition ratio 80:1)
# Internal standard: Octyl alcohol
# Column: HP-20M (Carbowax 20M) (25 m×0.32 mm, film thickness 0.3 μm)
# Column temperature: 30° C. (Isothermal)
# Detector: FID (Temperature: 200° C.)
# Injection temperature: 150° C.
# Internal standard: Diethyl ether
# Column temperature: 180° C. (Isothermal)
# Detector: FID (Temperature: 240° C.)
# Injection temperature: 240° C.
# Internal standard: Pentadecanoic acid methyl ester
# Column: Ultra 2 (Cross-linked 5% phenylmethyl silicone gun phase, 25 m×0.32 mm, thickness 0.52 μm)
# Injection temperature: 270° C.
# Detector: FID (Temperature: 270° C.) p1 Injection temperature: 270° C.
# Internal standard: Dimethylisosorbide
Change in contents (per capsule): Initial content,Change in contents (per capsule): Storage period 2 days (room temperature),"Change in contents (per capsule): Storage period 5 days (room temperature, 5 days)",Compound,Change in contents (per capsule): Storage period 14 days (room temperature)
19.8,3.6,0.9,"CC(O)CO (stereo not drawn) [Propylene glycol, propylene glycol]",
19.8,7.3,,"CCOCCOCCO [Transcutol, diethylene glycol monoethyl ether]",2.7

Compound,Change in contents (per capsule): Initial content,Change in contents (per capsule): Storage period 2 days (room temperature),"Change in contents (per capsule): Storage period 5 days (room temperature, 5 days)",Change in contents (per capsule): Storage period 14 days (room temperature)
tetrahydrofurfuryl alcohol polyethylene glycol ether [Glycofurol],19.8,8.2,,3.2
